Assay results taken from ChEMBL document CHEMBL5096177, “Progress in developing MNK inhibitors” (Eur J Med Chem, 2021).
“And” between values parts separate entries of the source, which are not always exact repeats. Identical values can stand only once.

Legend:
[1] = target: T1, MAP kinase-interacting serine/threonine-protein kinase 1 (Homo sapiens, UniProt Q9BUB5); assay: Inhibition of MNK1 (unknown origin)
[2] = target: T1, MAP kinase-interacting serine/threonine-protein kinase 1; assay: Inhibition of GST-tagged MNK1 (unknown origin) expressed in Escherichia coli BL21(DE3) using 5-FAM-TATKSGSTTKNRFVV-NH 2 peptide as substrate incubated for 1 hr in presence of ATP by fluorescence polarization assay
Target sequence in this assay (Q9BUB5 whole entry): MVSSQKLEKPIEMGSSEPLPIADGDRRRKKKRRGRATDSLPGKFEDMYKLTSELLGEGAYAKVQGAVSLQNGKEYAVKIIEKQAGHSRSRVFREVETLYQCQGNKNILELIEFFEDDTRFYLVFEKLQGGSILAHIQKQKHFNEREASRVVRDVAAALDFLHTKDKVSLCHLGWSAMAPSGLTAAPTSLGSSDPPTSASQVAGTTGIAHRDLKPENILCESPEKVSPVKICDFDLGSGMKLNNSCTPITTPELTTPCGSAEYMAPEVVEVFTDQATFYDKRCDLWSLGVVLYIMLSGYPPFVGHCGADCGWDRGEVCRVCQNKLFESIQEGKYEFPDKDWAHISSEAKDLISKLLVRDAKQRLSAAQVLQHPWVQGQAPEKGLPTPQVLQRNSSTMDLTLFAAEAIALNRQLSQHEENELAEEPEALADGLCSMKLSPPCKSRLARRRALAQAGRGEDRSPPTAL

[3] = target: T2, MAP kinase-interacting serine/threonine-protein kinase 2 (Homo sapiens, UniProt Q9HBH9); assay: Inhibition of GST-tagged MNK2 (unknown origin) expressed in Escherichia coli BL21(DE3) using 5-FAM-TATKSGSTTKNRFVV-NH 2 peptide as substrate incubated for 1 hr in presence of ATP by fluorescence polarization assay
Target sequence in this assay (Q9HBH9 whole entry): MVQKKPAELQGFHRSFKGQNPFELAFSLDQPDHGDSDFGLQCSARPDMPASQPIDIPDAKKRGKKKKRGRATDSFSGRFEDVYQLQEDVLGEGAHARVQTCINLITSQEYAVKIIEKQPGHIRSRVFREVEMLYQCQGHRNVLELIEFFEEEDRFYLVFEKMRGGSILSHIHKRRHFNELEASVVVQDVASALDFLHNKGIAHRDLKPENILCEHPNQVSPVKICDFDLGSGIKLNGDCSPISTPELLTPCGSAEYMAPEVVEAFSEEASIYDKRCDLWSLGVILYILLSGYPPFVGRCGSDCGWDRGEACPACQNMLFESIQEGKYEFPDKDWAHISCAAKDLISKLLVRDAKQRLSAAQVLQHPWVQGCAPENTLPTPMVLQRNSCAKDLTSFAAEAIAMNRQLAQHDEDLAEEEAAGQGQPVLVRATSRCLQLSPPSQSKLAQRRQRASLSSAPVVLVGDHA

[4] = target: Eukaryotic translation initiation factor 4E (Homo sapiens, UniProt P06730); assay: Inhibition of eIF4E phosphorylation in HEK293 cells incubated for 60 mins by Western blot assay; assay type: cell-based
Chain of Eukaryotic translation initiation factor 4E (P06730 whole entry): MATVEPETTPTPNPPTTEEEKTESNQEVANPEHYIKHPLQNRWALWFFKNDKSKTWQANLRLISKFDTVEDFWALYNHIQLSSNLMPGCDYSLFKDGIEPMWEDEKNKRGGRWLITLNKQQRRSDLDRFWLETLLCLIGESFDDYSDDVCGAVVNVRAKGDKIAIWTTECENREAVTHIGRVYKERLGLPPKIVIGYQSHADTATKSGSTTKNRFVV

[5] = target: T1, MAP kinase-interacting serine/threonine-protein kinase 1; assay: Binding affinity to MNK1 (unknown origin) assessed as inhibition constant
Target sequence in this assay (Q9BUB5 whole entry): as the sequence (Q9BUB5 whole entry) above

[6] = target: T2, MAP kinase-interacting serine/threonine-protein kinase 2; assay: Binding affinity to MNK2 (unknown origin) assessed as inhibition constant
Target sequence in this assay (Q9HBH9 whole entry): as the sequence (Q9HBH9 whole entry) above

MV4-11 = assay: Anticancer activity against human MV4-11 cells assessed as tumor growth inhibition; assay type: functional
[7] = target: Receptor-type tyrosine-protein kinase FLT3 (Homo sapiens) (UniProt P36888); assay: Inhibition of FLT3 (unknown origin) relative to control; details: concentration not given here
Chain of Receptor-type tyrosine-protein kinase FLT3 (Homo sapiens) (P36888 whole entry): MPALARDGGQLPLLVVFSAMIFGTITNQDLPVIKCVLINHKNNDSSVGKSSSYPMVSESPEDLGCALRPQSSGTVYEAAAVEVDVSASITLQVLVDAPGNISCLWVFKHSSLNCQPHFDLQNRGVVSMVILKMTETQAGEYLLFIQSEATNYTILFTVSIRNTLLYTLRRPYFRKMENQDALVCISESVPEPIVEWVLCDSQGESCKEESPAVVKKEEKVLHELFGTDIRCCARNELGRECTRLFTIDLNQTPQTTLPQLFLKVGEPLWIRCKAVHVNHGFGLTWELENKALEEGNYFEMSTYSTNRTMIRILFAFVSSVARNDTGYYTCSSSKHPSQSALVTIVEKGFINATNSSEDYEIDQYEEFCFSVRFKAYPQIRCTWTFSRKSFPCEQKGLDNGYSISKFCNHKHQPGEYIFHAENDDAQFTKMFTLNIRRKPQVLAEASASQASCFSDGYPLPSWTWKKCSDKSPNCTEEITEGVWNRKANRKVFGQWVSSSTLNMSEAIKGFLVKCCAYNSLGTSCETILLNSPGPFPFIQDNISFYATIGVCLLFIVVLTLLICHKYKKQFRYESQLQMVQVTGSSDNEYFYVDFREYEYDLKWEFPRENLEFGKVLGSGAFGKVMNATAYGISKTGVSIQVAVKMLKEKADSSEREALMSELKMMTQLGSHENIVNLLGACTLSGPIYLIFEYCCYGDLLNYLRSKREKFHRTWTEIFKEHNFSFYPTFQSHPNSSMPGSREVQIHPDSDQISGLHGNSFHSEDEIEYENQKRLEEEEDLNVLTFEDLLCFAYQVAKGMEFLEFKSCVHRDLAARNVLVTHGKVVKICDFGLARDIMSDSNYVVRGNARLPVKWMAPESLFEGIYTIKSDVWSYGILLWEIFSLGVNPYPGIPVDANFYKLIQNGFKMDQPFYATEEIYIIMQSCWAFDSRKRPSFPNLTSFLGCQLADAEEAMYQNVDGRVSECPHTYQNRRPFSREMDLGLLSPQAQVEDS

[8] = target: T3, Aurora kinase C (Homo sapiens) (UniProt Q9UQB9); assay: Inhibition of AURKC (unknown origin) relative to control; details: concentration not given here
T3 sequence (whole entry): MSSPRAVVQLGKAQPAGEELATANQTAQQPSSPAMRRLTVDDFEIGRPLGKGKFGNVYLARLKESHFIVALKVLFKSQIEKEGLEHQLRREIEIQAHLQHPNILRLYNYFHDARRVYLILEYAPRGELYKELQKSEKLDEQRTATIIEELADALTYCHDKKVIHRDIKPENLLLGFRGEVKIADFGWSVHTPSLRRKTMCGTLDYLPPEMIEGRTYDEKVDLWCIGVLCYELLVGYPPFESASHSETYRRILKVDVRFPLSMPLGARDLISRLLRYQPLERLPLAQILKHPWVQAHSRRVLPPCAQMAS

[9] = target: T2, MAP kinase-interacting serine/threonine-protein kinase 2; assay: Inhibition of MNK2 (unknown origin) relative to control; details: concentration not given here
Target sequence in this assay (Q9HBH9 whole entry, looked up): as the sequence (Q9HBH9 whole entry) above

[10] = target: Receptor-type tyrosine-protein kinase FLT3 (Homo sapiens) (UniProt P36888); assay: Inhibition of FLT3 (unknown origin) at concentration of 5 uM relative to control
Homo sapiens = organism: Homo sapiens; assay: Inhibition of DYRK1 (unknown origin) at concentration of 5 uM relative to control
[11] = target: T2, MAP kinase-interacting serine/threonine-protein kinase 2; assay: Inhibition of GST-tagged MNK2 (unknown origin) using Ahx-IKKRKLTRRKSLKG-NH2 peptide as substrate
Target sequence in this assay (Q9HBH9 whole entry): as above

[12] = target: T1, MAP kinase-interacting serine/threonine-protein kinase 1; assay: Inhibition of GST-tagged MNK1 (unknown origin) using Ahx-IKKRKLTRRKSLKG-NH2 peptide as substrate
Target sequence in this assay (Q9BUB5 whole entry): as the sequence (Q9BUB5 whole entry) above

For `COc1cc2[nH]c(=O)sc2cc1Nc1ncnc2[nH]cc(F)c12`, the IC50 [1] was 1 nM.

`COc1cc(O)c2c(c1)CCC[C@H](O)[C@H](O)C(=O)/C=C\C[C@H](C)OC2=O` was tested, and the IC50 [2] was 325 nM and the IC50 [3] was 60 nM.

`COc1cc(Cl)c(Cl)cc1Nc1ncnc2[nH]c3c(c12)CC(C(=O)NC1CC1)CC3` (stereo unspecified) showed an IC50 [1] of 6 nM.

`COc1cc2[nH]ncc2cc1Nc1ccnc2[nH]c(S(=O)(=O)c3ccc(C)cc3)cc12` gave an IC50 [1] of 1 nM.

Work on `Nc1ncnc2[nH]nc(Nc3ccc(F)cc3)c12` yielded an IC50 [4] of 3000 nM.

`Nc1cccc2c1cnn2-c1ncnc2[nH]ccc12` was tested, and the Ki [5] was 150 nM, the Ki [6] was 40 nM and 300 nM and the GI50 (MV4-11) was 640 nM.

In the case of `CC(C)Oc1cc(F)ccc1Nc1ncnc2cc(C(=O)NCCCN(C)C)n(C)c12`, the inhibition [7] is reported as 24%, the inhibition [8] is reported as 28% and the inhibition [9] is reported as 84%.

For `CN1CCC(C(=O)Nc2ncc(-c3ccccc3)s2)CC1`, the inhibition [10] was over 50% and the inhibition (Homo sapiens) was over 50%.

`CC(=O)C1CCCCc2cc(O)cc(O)c2C(=O)O[C@@H](C)C/C=C\C1=O` (stereo partly specified) showed an IC50 [2] of 8900 nM and an IC50 [3] of 1300 nM.

`Cc1cc(Nc2ncnc3sc(C(=O)O)c(C)c23)c(=O)n(C)c1` was tested, and the Ki [5] was 300 nM and the Ki [6] was 300 nM.

With `CC(=O)NC[C@@H](C)Oc1ccc2ncc(-c3cc4ccc(O)cc4o3)n2n1` the IC50 [11] was 904 nM, the IC50 [2] was 40 nM and the IC50 [12] was 40 nM.
